{
  "source": "the supplement of paper PMC4862054",
  "experiment_in_all_cases": "normalised viability (% of control), CellTiter-Blue; higher = more viable cells (about 100 = DMSO control)",
  "conditions_in_all_cases": "incubation time: 72 h",
  "key": {"CAL-51 [1]": {"system": "CAL-51", "procedure": "(§1)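 DSRT, CellTiter-Blue viability, 72 h incubation. Signal is normalised to DMSO and benzethonium chloride controls. Value is the normalised response at dose 6.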"}, "CAL-148 [2]": {"system": "CAL-148", "procedure": "as §1"}, "HDQ-P1": {"system": "HDQ-P1", "procedure": "as §1"}, "CAL-85-1 [3]": {"system": "CAL-85-1", "procedure": "as §1"}, "MDA-MB-453 [4]": {"system": "MDA-MB-453", "procedure": "as §1"}, "DU-4475 [5]": {"system": "DU-4475", "procedure": "as §1"}, "CAL-51 [6]": {"system": "CAL-51", "procedure": "(§2)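 DSRT, CellTiter-Blue viability, 72 h incubation. Signal is normalised to DMSO and benzethonium chloride controls. Value is the normalised response at dose 9.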", "remark": "listed apart in the source"}, "CAL-148 [7]": {"system": "CAL-148", "procedure": "as §2", "remark": "listed apart in the source"}, "CAL-85-1 [8]": {"system": "CAL-85-1", "procedure": "as §2", "remark": "listed apart in the source"}, "MDA-MB-453 [9]": {"system": "MDA-MB-453", "procedure": "as §2", "remark": "listed apart in the source"}, "DU-4475 [10]": {"system": "DU-4475", "procedure": "as §2", "remark": "listed apart in the source"}},
  "note": "Several values for one entry are separate records, joined by “and”; a condition that tells them apart may be missing. Identical values can stand only once.",
  "data": [
    {"molecule": "O=c1[nH]c(=O)n([C@H]2C[C@H](O)[C@@H](CO)O2)cc1F", "note": "[Floxuridine] (300 nM)", "values": [
      {"measurement": "normalised viability", "setting": "CAL-51 [1]", "value": 35, "unit": "%"},
      {"measurement": "normalised viability", "setting": "CAL-148 [2]", "value": 55.2, "unit": "%"},
      {"measurement": "normalised viability", "setting": "HDQ-P1", "value": 78.8, "unit": "%"},
      {"measurement": "normalised viability", "setting": "CAL-85-1 [3]", "value": 58.7, "unit": "%"},
      {"measurement": "normalised viability", "setting": "MDA-MB-453 [4]", "value": 90.8, "unit": "%"},
      {"measurement": "normalised viability", "setting": "DU-4475 [5]", "value": 76, "unit": "%"}
    ]},
    {"molecule": "COc1cccc2c1C(=O)c1c(O)c3c(c(O)c1C2=O)C[C@@](O)(C(C)=O)C[C@@H]3O[C@H]1C[C@H](N)[C@H](O)[C@H](C)O1", "note": "[Daunorubicin] (30 nM)", "values": [
      {"measurement": "normalised viability", "setting": "CAL-51 [1]", "value": 54.5, "unit": "%"},
      {"measurement": "normalised viability", "setting": "CAL-148 [2]", "value": 59.5, "unit": "%"},
      {"measurement": "normalised viability", "setting": "HDQ-P1", "value": 74.9, "unit": "%"},
      {"measurement": "normalised viability", "setting": "CAL-85-1 [3]", "value": 94.6, "unit": "%"},
      {"measurement": "normalised viability", "setting": "MDA-MB-453 [4]", "value": 93.7, "unit": "%"},
      {"measurement": "normalised viability", "setting": "DU-4475 [5]", "value": 64.7, "unit": "%"}
    ]},
    {"molecule": "O=C(c1ccc(OCCN2CCCCC2)cc1)c1c(-c2ccc(O)cc2)sc2cc(O)ccc12", "note": "[Raloxifene] (300 nM)", "values": [
      {"measurement": "normalised viability", "setting": "CAL-51 [1]", "value": 100, "unit": "%"},
      {"measurement": "normalised viability", "setting": "CAL-148 [2]", "value": 102, "unit": "%"},
      {"measurement": "normalised viability", "setting": "HDQ-P1", "value": 84.6, "unit": "%"},
      {"measurement": "normalised viability", "setting": "CAL-85-1 [3]", "value": 105, "unit": "%"},
      {"measurement": "normalised viability", "setting": "MDA-MB-453 [4]", "value": 102, "unit": "%"},
      {"measurement": "normalised viability", "setting": "DU-4475 [5]", "value": 114, "unit": "%"}
    ]},
    {"molecule": "O=P(O)(NCCCl)NCCCl", "note": "[Ifosfamide mustard] (300 nM)", "values": [
      {"measurement": "normalised viability", "setting": "CAL-51 [1]", "value": 100, "unit": "%"},
      {"measurement": "normalised viability", "setting": "CAL-148 [2]", "value": 110, "unit": "%"},
      {"measurement": "normalised viability", "setting": "HDQ-P1", "value": 54, "unit": "%"},
      {"measurement": "normalised viability", "setting": "CAL-85-1 [3]", "value": 98, "unit": "%"},
      {"measurement": "normalised viability", "setting": "MDA-MB-453 [4]", "value": 114, "unit": "%"},
      {"measurement": "normalised viability", "setting": "DU-4475 [5]", "value": 92.7, "unit": "%"}
    ]},
    {"molecule": "Cn1cnc2c(F)c(Nc3ccc(Br)cc3F)c(C(=O)NOCCO)cc21", "note": "[MEK-162] (30 nM)", "values": [
      {"measurement": "normalised viability", "setting": "CAL-51 [1]", "value": 96.5, "unit": "%"},
      {"measurement": "normalised viability", "setting": "CAL-148 [2]", "value": 95.1, "unit": "%"},
      {"measurement": "normalised viability", "setting": "HDQ-P1", "value": 47.6, "unit": "%"},
      {"measurement": "normalised viability", "setting": "CAL-85-1 [3]", "value": 101, "unit": "%"},
      {"measurement": "normalised viability", "setting": "MDA-MB-453 [4]", "value": 118, "unit": "%"},
      {"measurement": "normalised viability", "setting": "DU-4475 [5]", "value": 61.2, "unit": "%"}
    ]},
    {"molecule": "Cn1c(=O)c(F)c(Nc2ccc(I)cc2F)c2c(=O)n(C[C@@H](O)CO)cnc21", "note": "[TAK-733] (30 nM)", "values": [
      {"measurement": "normalised viability", "setting": "CAL-51 [1]", "value": 89.7, "unit": "%"},
      {"measurement": "normalised viability", "setting": "CAL-148 [2]", "value": 98.7, "unit": "%"},
      {"measurement": "normalised viability", "setting": "HDQ-P1", "value": 77.7, "unit": "%"},
      {"measurement": "normalised viability", "setting": "CAL-85-1 [3]", "value": 84.5, "unit": "%"},
      {"measurement": "normalised viability", "setting": "MDA-MB-453 [4]", "value": 112, "unit": "%"},
      {"measurement": "normalised viability", "setting": "DU-4475 [5]", "value": 1.81, "unit": "%"}
    ]},
    {"molecule": "c1ccc(C2CN3CCSC3=N2)cc1", "note": "(centres undefined) [Tetramisole] (300 nM)", "values": [
      {"measurement": "normalised viability", "setting": "CAL-51 [1]", "value": 93.3, "unit": "%"},
      {"measurement": "normalised viability", "setting": "CAL-148 [2]", "value": 102, "unit": "%"},
      {"measurement": "normalised viability", "setting": "HDQ-P1", "value": 129, "unit": "%"},
      {"measurement": "normalised viability", "setting": "CAL-85-1 [3]", "value": 102, "unit": "%"},
      {"measurement": "normalised viability", "setting": "MDA-MB-453 [4]", "value": 103, "unit": "%"},
      {"measurement": "normalised viability", "setting": "DU-4475 [5]", "value": 98.6, "unit": "%"}
    ]},
    {"molecule": "CS(=O)(=O)CCNCc1ccc(-c2ccc3ncnc(Nc4ccc(OCc5cccc(F)c5)c(Cl)c4)c3c2)o1", "note": "[Lapatinib] (10000 nM)", "values": [
      {"measurement": "normalised viability", "setting": "CAL-51 [6]", "value": "90% and 94.5%"},
      {"measurement": "normalised viability", "setting": "CAL-148 [7]", "value": "60.4% and 65.6%"},
      {"measurement": "normalised viability", "setting": "CAL-85-1 [8]", "value": "30% and 39.3%"},
      {"measurement": "normalised viability", "setting": "MDA-MB-453 [9]", "value": "20.9% and 28.7%"},
      {"measurement": "normalised viability", "setting": "DU-4475 [10]", "value": "117% and 99.2%"}
    ]},
    {"molecule": "CC(=O)O[C@H]1C(=O)[C@@]2(C)[C@H]([C@H](OC(=O)c3ccccc3)[C@]3(O)C[C@H](OC(=O)[C@H](O)[C@@H](NC(=O)c4ccccc4)c4ccccc4)C(C)=C1C3(C)C)[C@]1(OC(C)=O)CO[C@@H]1C[C@@H]2O", "note": "[Paclitaxel] (30 nM)", "values": [
      {"measurement": "normalised viability", "setting": "CAL-51 [1]", "value": 38.8, "unit": "%"},
      {"measurement": "normalised viability", "setting": "CAL-148 [2]", "value": 20.8, "unit": "%"},
      {"measurement": "normalised viability", "setting": "HDQ-P1", "value": 33.7, "unit": "%"},
      {"measurement": "normalised viability", "setting": "CAL-85-1 [3]", "value": 32.6, "unit": "%"},
      {"measurement": "normalised viability", "setting": "MDA-MB-453 [4]", "value": 26.1, "unit": "%"},
      {"measurement": "normalised viability", "setting": "DU-4475 [5]", "value": 39.6, "unit": "%"}
    ]},
    {"molecule": "CC(C)C[C@H](NC(=O)[C@H](Cc1ccccc1)NC(=O)c1cnccn1)B(O)O", "note": "[Bortezomib] (30 nM)", "values": [
      {"measurement": "normalised viability", "setting": "CAL-51 [1]", "value": 67.6, "unit": "%"},
      {"measurement": "normalised viability", "setting": "CAL-148 [2]", "value": 41, "unit": "%"},
      {"measurement": "normalised viability", "setting": "HDQ-P1", "value": 2.53, "unit": "%"},
      {"measurement": "normalised viability", "setting": "CAL-85-1 [3]", "value": 7.63, "unit": "%"},
      {"measurement": "normalised viability", "setting": "MDA-MB-453 [4]", "value": 24, "unit": "%"},
      {"measurement": "normalised viability", "setting": "DU-4475 [5]", "value": 9.69, "unit": "%"}
    ]}
  ]
}
